The values that follow come from article PMC11321677, “Reversing MET‐Mediated Resistance in Oncogene‐Driven NSCLC by MET‐Activated Wnt Condensative Prodrug” (Advanced Science, 2024).

For data set [1], the system named is PC-9 OE cell xenografts. Kind of data set: PC-9 OE NSCLC cell xenograft mouse model. In kind it is in vivo, BALB/c nude mice. The following applies: PC-9 OE xenograft, 3 mg kg−1 tail vein every two days, five injections. From the text: To evaluate the inhibitory impact of WntSI on the Wnt/β‐catenin pathway in vivo, we established a model of PC‐9 OE cell xenografts in BALB/c nude mice (Figure S12A, Supporting Information). […] In addition, we evaluated the drug safety of CA and WntSI, including recording the weight fluctuation of mice during the treatment period as well as the detection of hematological and biochemical indicators (Figure S12F–H, Supporting Information). […] Furthermore, we conducted IHC staining and IHC scoring (Figure 5F,G) to explore the expression of c‐Met, β‐catenin pathway‐associated proteins, as well as Ki67 in the tumor tissues. […] In addition, we closely monitored the fluctuations in body weight among the four groups of mice throughout the course of treatment (Figure 5H).
5×10^6 PC‐9 OE cells were subcutaneously injected into the right flanks of BALB/c nude mice aged 5–6 weeks. The tumor volume was calculated using the equation: volume = 1/2 × length × width^2. Once the tumor volume reached 150–180 mm^3, the mice were randomly grouped. The specific groups are as follows: 1) control (PBS), CA (3 mg kg^−1), and WntSI (3 mg kg^−1); the drug was administered via tail vein every two days for a total five injections; 2) control (normal saline), Gefitinib (25 mg kg^−1 d^−1), Gefitinib combined with Savolitinib (2.5 mg kg^−1 d^−1), and Gefitinib combined with WntSI (3 mg kg^−1, every two days) groups; normal saline, Gefitinib, and Savolitinib were administered by daily gavage, while WntSI was administered via tail vein injection every two days. Tumor growth was monitored daily, and xenografts were collected for formalin‐fixed‐paraffin embedded (FFPE) or snap frozen in liquid nitrogen for subsequent experiments.

The subject of data set [2] is PC-9 OE cells (MET overexpression). The data set can be described thus: alamarBlue cell viability. In kind it is cell-based. In general terms: The colour change of resazurin is a common sign of viable cells or microbes.
Procedure: 1 × 10^8 transducing units (TU) of lentivirus were mixed with 40 µL of HitransG P (PC‐9) or HitransG A (NCI‐H1975) infection enhancement solution and 1 mL of complete medium to infect cells in a 6‐well plate.
In the presented cell experiments, Savolitinib was administered in combination with Gefitinib or Osimertinib at a concentration of 10 µM. The cell viability was determined by alamarBlue assay (Thermo Fisher Scientific).
Data set [3] concerns the target T1, c-Met (Homo sapiens, UniProt P08581).
T1 construct: host or cells: PC-9 OE (PC-9 cells stably transduced with MET OE lentivirus)
The data set can be described thus: Biotin affinity purification (pull-down) assay. In kind it is binding. As to conditions: biotin-labeled Tyr-Pep on streptavidin magnetic beads, lysed PC-9 OE cells, 4 °C, 6 h, western blotting. From the text:
The process was successfully replicated through a coarse‐grained dynamic simulation involving the interaction between Tyr‐Pep and CA molecules, wherein the emergence of LLPS and subsequent self‐assembly into a condensate were observed (Figure 3B). […] Next, the mass ratio of 1:0.5 (Tyr‐Pep to CA) was selected for the preparation of the Wnt supramolecular inhibitor, WntSI, in order to maximize the utilization of condensate size for passive tumor targeting. […] Furthermore, the successful assembly of WntSI was once again confirmed by both Fourier‐transform infrared (FT‐IR) spectrum analysis (Figure S5C, Supporting Information) and UV–vis absorption spectrum analysis (Figure S5D, Supporting Information), providing compelling evidence through the presence of characteristic absorption peaks associated with peptide and CA. More importantly, as our design WntSI was constructed by a reversible supramolecular self‐assembly driven by LLPS, which can disassemble in response to MET (Figure 3A). Alpha Fold 2.0 accurately predicted the strong bonding ability between Tyr‐Pep and c‐Met, as depicted in Figure 3D. This prediction was further substantiated through co‐immunoprecipitation analysis involving biotin‐labeled Tyr‐Pep and c‐Met, as illustrated in Figure S5E (Supporting Information). […] The concentration of CA in their supernatant after centrifugation at 15 000 g was measured using HPLC. […]
For orientation: A western blot detects proteins with antibodies after separation by electrophoresis.

The test system of data set [4] is PC-9 OE and NCI-H1975 OE cells. The data set can be described thus: Colony formation assay. In kind it is cell-based. As to conditions: 7–10 days, n = 3. Here is the method: The PC‐9 OE and NCI‐H1975 OE cells were seeded at a low density and cultured in serum‐rich medium containing drugs for 7–10 days to assess clone formation. Subsequently, the culture medium was discarded, and the cell colonies were fixed with methanol, stained with 0.1% crystal violet, and washed with distilled water until the background was clear. The number of colonies was quantified using Image J software.

Non-standard residues stand in square brackets, D forms with d. Residues, ends and D or L forms follow the SMILES beside them.

T1 sequence (P08581 25-1390): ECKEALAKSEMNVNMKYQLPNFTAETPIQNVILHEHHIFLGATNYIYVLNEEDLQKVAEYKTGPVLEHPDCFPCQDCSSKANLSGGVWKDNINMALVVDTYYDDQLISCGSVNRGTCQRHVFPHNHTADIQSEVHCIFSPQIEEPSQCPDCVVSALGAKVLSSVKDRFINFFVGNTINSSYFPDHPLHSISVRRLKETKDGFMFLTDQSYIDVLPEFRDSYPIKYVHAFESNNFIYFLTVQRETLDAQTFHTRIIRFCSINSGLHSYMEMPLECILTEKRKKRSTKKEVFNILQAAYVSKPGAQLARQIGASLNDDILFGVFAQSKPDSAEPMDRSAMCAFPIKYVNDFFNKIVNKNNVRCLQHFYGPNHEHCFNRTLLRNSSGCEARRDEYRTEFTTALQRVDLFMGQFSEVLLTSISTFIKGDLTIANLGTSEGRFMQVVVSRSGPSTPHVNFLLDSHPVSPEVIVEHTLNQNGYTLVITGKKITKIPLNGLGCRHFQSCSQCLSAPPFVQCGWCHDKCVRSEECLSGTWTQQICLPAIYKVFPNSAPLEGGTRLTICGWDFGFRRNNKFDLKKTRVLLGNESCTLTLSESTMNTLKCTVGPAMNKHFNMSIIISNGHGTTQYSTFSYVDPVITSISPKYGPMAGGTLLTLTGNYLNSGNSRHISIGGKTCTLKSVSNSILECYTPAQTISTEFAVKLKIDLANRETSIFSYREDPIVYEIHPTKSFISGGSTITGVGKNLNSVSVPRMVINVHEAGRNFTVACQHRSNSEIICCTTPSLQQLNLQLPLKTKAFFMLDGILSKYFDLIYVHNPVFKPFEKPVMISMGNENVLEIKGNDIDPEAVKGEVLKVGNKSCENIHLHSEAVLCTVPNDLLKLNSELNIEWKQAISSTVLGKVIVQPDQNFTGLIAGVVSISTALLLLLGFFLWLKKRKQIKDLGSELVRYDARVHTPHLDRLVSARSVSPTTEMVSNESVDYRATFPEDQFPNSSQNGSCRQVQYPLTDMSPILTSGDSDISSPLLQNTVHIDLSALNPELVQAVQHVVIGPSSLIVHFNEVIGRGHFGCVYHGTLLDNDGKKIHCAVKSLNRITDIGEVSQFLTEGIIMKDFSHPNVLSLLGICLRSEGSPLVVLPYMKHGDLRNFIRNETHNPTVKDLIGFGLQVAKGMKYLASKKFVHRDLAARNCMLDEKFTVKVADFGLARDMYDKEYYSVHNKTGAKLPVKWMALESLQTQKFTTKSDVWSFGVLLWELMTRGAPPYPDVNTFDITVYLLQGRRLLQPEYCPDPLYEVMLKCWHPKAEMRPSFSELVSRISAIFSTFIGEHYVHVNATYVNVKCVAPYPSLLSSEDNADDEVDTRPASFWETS

On to `CC(C)c1cc2c(c(O)c1O)[C@@]1(C(=O)O)CCCC(C)(C)[C@@H]1CC2` [CA, carnosic acid], for which, in data set [1] (n = 3), the “Levels of ALT and AST” value is “varying degrees of increase”; the “Levels of white blood cells (WBC), neutrophils and platelets” value is listed as “significantly lower than those of the control group”. The “Weight growth rate of mice during treatment” value in data set [1] (n = 5) is reported as “slowed down”.

As for `C[C@@H](c1ccc2nccn2c1)n1nnc2ncc(-c3cnn(C)c3)nc21` [Savolitinib], in data set [2], the “Impact on the susceptibility of EGFR-TKIs” value was “negligible impact”.

`CC[C@H](C)[C@H](NC(=O)[C@H](CC(C)C)NC(=O)[C@H](CC(N)=O)NC(=O)[C@@H](NC(=O)[C@@H](CCC(=O)O)NC(=O)[C@@H](Cc1c[nH]cn1)NC(=O)[C@@H](CCC(=O)O)NC(=O)[C@@H](Cc1c[nH]cn1)NC(=O)[C@@H](CCC(=O)O)NC(=O)[C@H](N)Cc1c[nH]cn1)C(C)C)C(=O)N[C@@H](CC(N)=O)C(=O)N[C@@H](Cc1ccc(O)cc1)C(=O)N[C@@H](CCC(N)=O)C(=O)N[C@@H](CC(=O)O)C(=O)N[C@@H](CC(=O)O)C(=O)N[C@@H](C)C(=O)N[C@@H](CCC(=O)O)C(=O)N[C@@H](CC(C)C)C(=O)N[C@H](Cc1c[nH]cn1)C(=O)N[C@H](Cc1c[nH]cn1)C(=O)N[C@H](Cc1c[nH]cn1)C(=O)N[C@H](CCCNC(=N)N)C(=O)N[C@H](CCCNC(=N)N)C(=O)N[C@H](CCCNC(=N)N)C(=O)N[C@H](CCCNC(=N)N)C(=O)N[C@H](Cc1c[nH]cn1)C(N)=O` [Tyr‐Pep] (H-[dH][dE][dH][dE][dH][dE]VNLINYQDDAEL[dH][dH][dH][dR][dR][dR][dR][dH]-NH2): the “Co-immunoprecipitation with c-Met” value in data set [3] is reported as “can be recognized by c‐Met”. The “Suppressive effect on clone formation” value in data set [4] is reported as “no impact”.
